Measurements taken from patent US11178868B2, “Alkynyl-substituted 3-phenylpyrrolidine-2,4-diones and use thereof as herbicides” (Bayer CropScience Aktiengesellschaft, priority 2015, dated 2021).

Assays:
Format in all cases: in vivo
[1] = system: Cyperus esculentus; test: Pre-emergence herbicidal effect; details: scored visually after 3 weeks
Source text: (§1) Seeds of monocotyledonous and dicotyledonous weed plants and crop plants are laid out in wood-fibre pots in sandy loam and covered with soil. The compounds according to the invention formulated in the form of wettable powders (WP) or as emulsion concentrates (EC) are then applied as aqueous suspension or emulsion at a water application rate of 600 to 800 I/ha (converted) with the addition of 0.2% wetting agent to the surface of the covering soil. After the treatment, the pots are placed in a greenhouse and kept under good growth conditions for the trial plants. The damage to the test plants is scored visually after a test period of 3 weeks by comparison with untreated controls (herbicidal activity in percent (%): 100% activity=the plants have died, 0% activity=like control plants).

[2] = system: Avena fatua; test: Pre-emergence herbicidal effect; details: scored visually after 3 weeks
Source text: as §1

[3] = system: Setaria viridis; test: Pre-emergence herbicidal effect; details: scored visually after 3 weeks
Source text: as §1

[4] = system: Echinochloa crus-galli; test: Pre-emergence herbicidal effect; details: scored visually after 3 weeks
Source text: as §1

[5] = system: Lolium multiflorum; test: Pre-emergence herbicidal effect; details: scored visually after 3 weeks
Source text: as §1

[6] = system: Alopecurus myosuroides; test: Pre-emergence herbicidal effect; details: scored visually after 3 weeks
Source text: as §1

[7] = system: Avena fatua; test: Post-emergence herbicidal effect; details: assessed visually after about 3 weeks
Description: (§2) Seeds of monocotyledonous and dicotyledonous weed and crop plants are laid out in sandy loam in wood-fibre pots, covered with soil and cultivated in a greenhouse under good growth conditions. 2 to 3 weeks after sowing, the test plants are treated at the one-leaf stage. The compounds according to the invention, formulated in the form of wettable powders (WP) or as emulsion concentrates (EC), are then sprayed as aqueous suspension or emulsion at a water application rate of 600 to 800 I/ha (converted) with the addition of 0.2% of wetting agent onto the green parts of the plants. After the test plants have been left to stand in the greenhouse under optimal growth conditions for about 3 weeks, the action of the preparations is assessed visually in comparison to untreated controls (herbicidal action in percent (%): 100% activity=the plants have died, 0% activity=like control plants).

[8] = system: Setaria viridis; test: Post-emergence herbicidal effect; details: assessed visually after about 3 weeks
Description: as §2

[9] = system: Echinochloa crus-galli; test: Post-emergence herbicidal effect; details: assessed visually after about 3 weeks
Description: as §2

[10] = system: Lolium multiflorum; test: Post-emergence herbicidal effect; details: assessed visually after about 3 weeks
Description: as §2

[11] = system: Alopecurus myosuroides; test: Post-emergence herbicidal effect; details: assessed visually after about 3 weeks
Description: as §2

[12] = system: Amaranthus retroflexus; test: Post-emergence herbicidal effect; details: assessed visually after about 3 weeks
Description: as §2

| Compound | Herbicidal effect against [%] CYPES ([1]; 320 g a.i./ha) | Herbicidal effect against [%] AVEFA ([2]; 80 g a.i./ha) | Herbicidal effect against [%] AVEFA ([2]; 320 g a.i./ha) | Herbicidal effect against [%] SETVI ([3]; 80 g a.i./ha) | Herbicidal effect against [%] SETVI ([3]; 320 g a.i./ha) | Herbicidal effect against [%] ECHCG ([4]; 80 g a.i./ha) | Herbicidal effect against [%] ECHCG ([4]; 320 g a.i./ha) | Herbicidal effect against [%] LOLMU ([5]; 80 g a.i./ha) | Herbicidal effect against [%] LOLMU ([5]; 320 g a.i./ha) | Herbicidal effect against [%] ALOMY ([6]; 80 g a.i./ha) | Herbicidal effect against [%] ALOMY ([6]; 320 g a.i./ha) | Herbicidal effect against [%] AVEFA ([7]; 20 g a.i./ha) | Herbicidal effect against [%] AVEFA ([7]; 80 g a.i./ha) | Herbicidal effect against [%] SETVI ([8]; 20 g a.i./ha) | Herbicidal effect against [%] SETVI ([8]; 80 g a.i./ha) | Herbicidal effect against [%] ECHCG ([9]; 20 g a.i./ha) | Herbicidal effect against [%] ECHCG ([9]; 80 g a.i./ha) | Herbicidal effect against [%] LOLMU ([10]; 20 g a.i./ha) | Herbicidal effect against [%] LOLMU ([10]; 80 g a.i./ha) | Herbicidal effect against [%] ALOMY ([11]; 80 g a.i./ha) | other results |
| --- | --- | --- | --- | --- | --- | --- | --- | --- | --- | --- | --- | --- | --- | --- | --- | --- | --- | --- | --- | --- | --- |
| CC#Cc1cc(C)c(C2=C(O)C3(CCCC(OCCOC)C3)NC2=O)c(CC)c1 (stereo not shown) [Example D8] | 100% | 100% | 100% | 100% | 100% | 100% | 100% | 100% | 100% | 100% | 100% | 100% | 100% | 100% | 100% | 100% | 100% | 100% | 100% | 100% | Herbicidal effect against [%] ALOMY ([11]; 20 g a.i./ha): 100% |
| CC#Cc1cc(CC)c(C2=C(OC(=O)OCC)C3(CCCC(OCC)C3)NC2=O)c(CC)c1 (single isomer, unassigned) [Example P4] |  | 100% | 100% | 100% | 100% | 100% | 100% | 100% | 100% | 100% | 100% |  | 100% | 100% | 100% | 100% | 100% | 100% | 100% | 100% | Herbicidal effect against [%] AMARE ([12]; 80 g a.i./ha): 80% |
| CC#Cc1cc(C)c(C2=C(OC(=O)OCC)C3(CCCC(OCC)C3)NC2=O)c(CC)c1 (stereo not shown) [Example P1] | 100% | 80% | 100% | 100% | 100% | 100% | 100% | 100% | 100% | 100% | 100% |  |  |  | 100% |  |  |  |  |  | Herbicidal effect against [%] CYPES ([1]; 80 g a.i./ha): 100% |
| C#Cc1cc(C)c(C2=C(O)C3(CCCC(OCCCC)C3)NC2=O)c(C)c1 (stereo not shown) [Example D4] | 100% |  |  |  | 80% |  | 100% |  | 80% |  |  |  |  |  |  |  |  |  |  |  |  |
| CC#Cc1cc(C)c(C2=C(O)C3(CCCC(OCCC)C3)NC2=O)c(C)c1 (stereo not shown) [Example D3, 3-[2,6-Dimethyl-4-(prop-1-yn-1-yl)phenyl]-4-hydroxy-7-propoxy-1-azaspiro[4.5]dec-3-en-2-one] |  | 80% | 100% | 100% | 100% | 100% | 100% | 100% | 100% | 100% | 100% |  | 90% | 80% | 100% | 100% | 100% | 80% | 100% |  | Herbicidal effect against [%] AMARE ([12]; 80 g a.i./ha): 90% |
| CC#Cc1cc(C)c(C2=C(OC(=O)OC(C)C)C3(CCCC(OCCOC)C3)NC2=O)c(C)c1 (stereo not shown) [Example P14] |  | 100% | 100% | 100% | 100% | 100% | 100% | 100% | 100% | 100% | 100% | 90% | 90% | 90% | 100% | 100% | 100% | 100% | 100% | 100% | Herbicidal effect against [%] ALOMY ([11]; 20 g a.i./ha): 100% |
| CC#Cc1cc(C)c(C2=C(OC(=O)OC)C3(CCCC(OCCOC)C3)NC2=O)c(C)c1 (stereo not shown) [Example P16] |  | 100% | 100% |  |  | 100% | 100% | 100% | 100% | 100% | 100% | 100% | 100% | 100% | 100% | 100% | 100% | 100% | 100% | 100% | Herbicidal effect against [%] AMARE ([12]; 20 g a.i./ha): 80%; Herbicidal effect against [%] AMARE ([12]; 80 g a.i./ha): 80%; Herbicidal effect against [%] ALOMY ([11]; 20 g a.i./ha): 100% |
| CC#Cc1cc(C)c(C2=C(OC(=O)OCC)C3(CCCC(OCCOC)C3)NC2=O)c(CC)c1 (stereo not shown) [Example P13] | 90% | 100% | 100% | 100% | 100% | 100% | 100% | 100% | 100% | 100% | 100% | 100% | 100% | 100% | 100% | 100% | 100% | 100% | 100% | 100% | Herbicidal effect against [%] ALOMY ([11]; 20 g a.i./ha): 100% |
